Laboratory results published in patent publication US20230381157A1, “RIFABUTIN FOR THE TREATMENT OF ACINETOBACTER BAUMANNII” (University of Southern California, priority 2018, published 2023).
pIC50: −log10 of the molar value. Converted amounts (≈) assume the structure as drawn. “And” between values parts separate entries of the source, which are not always exact repeats. Equal values may be shown once. Read-outs that look alike come from different tables or passages of the source.

Experiments:
[1] = system: A. baumannii HUMC1; assay: MIC, broth microdilution in MHII, RPMI or modified media; type: cell-based, Acinetobacter baumannii
[2] = system: HEK293T; assay: Specificity: mammalian cell cytotoxicity / inhibition of bacteria growth (CC50/IC50)
[3] = system: A. baumannii HUMC1; assay: IC50 dose response, inhibition of bacterial growth (BacTiter-Glo viability); type: cell-based, Acinetobacter baumannii; conditions: 11-point dose response, read-out: IC50
[4] = system: A. baumannii ATCC 17978; assay: as above; type: cell-based, Acinetobacter baumannii; conditions: 11-point dose response, read-out: IC50
[5] = system: K. pneumonia; assay: MIC, broth microdilution; type: cell-based; conditions: Klebsiella pneumoniae, read-out: MIC
[6] = system: Acinetobacter baumannii; assay: Galleria mellonella infection model; type: in vivo; conditions: Galleria mellonella; doses as high as 5 mg/kg
[7] = system: S. aureus LAC; type: cell-based, Staphylococcus aureus; conditions: TSA
[8] = system: A. baumannii; assay: MIC, broth microdilution, A. baumannii clinical isolates / strain panel; type: cell-based, Acinetobacter baumannii; conditions: Acinetobacter baumannii; for MIC: read-out: MIC; for MIC50 / MIC90: A. baumannii strain panel; for MIC50: read-out: MIC50; for MIC90: read-out: MIC90
[9] = system: A. baumannii HUMC1; type: in vivo, mouse
[10] = system: E. coli; assay: MIC, broth microdilution; type: cell-based; conditions: Escherichia coli, E. coli JJ1886
[11] = system: S. aureus LAC; assay: microbe, parasite or virus in culture; type: cell-based; conditions: Staphylococcus aureus, read-out: MIC
[12] = system: E. coli JJ1886; type: cell-based, Escherichia coli; conditions: TSA
[13] = system: A. baumannii; type: cell-based, Acinetobacter baumannii
[14] = system: A. baumannii HUMC1; type: in vivo, mouse; remark: listed apart in the source
[15] = IC50 vs A. baumannii ATCC 17978, RPMI + 50% serum
[16] = IC50 vs A. baumannii ATCC 17978, RPMI alone
[17] = IC50 vs A. baumannii HUMC1, RPMI + 50% serum
[18] = IC50 vs A. baumannii HUMC1, RPMI alone
[19] = Acinetobacter baumannii, HUMC1, 24 h, HUMC1, RPMI + 50% Serum
[20] = Acinetobacter baumannii, HUMC1, HUMC1, RPMI + 50% Serum
[21] = Acinetobacter baumannii, HUMC1, HUMC1, RPMI
[22] = Acinetobacter baumannii, ATCC17978, ATCC 17978, RPMI + 50% Serum
[23] = Acinetobacter baumannii, ATCC17978, ATCC 17978, RPMI

N#CC(C#N)=NNc1cccc(Cl)c1 [CCCP]
MIC of efflux pump inhibitor alone ([1]; HUMC1, inhibitor alone): 8 µg/mL

CO[C@H]1/C=C/O[C@@]2(C)Oc3c(C)c(O)c4c(O)c(c(/C=N/N=C/N5CCCCC5)c(O)c4c3C2=O)NC(=O)/C(C)=C\C=C\[C@H](C)[C@H](O)[C@@H](C)[C@@H](O)[C@@H](C)[C@H](OC(C)=O)[C@@H]1C [FCE-22250]
Specificity HEK293T (CC50/IC50) [2, 15]: 0.950 | Specificity HEK293T (CC50/IC50) [2, 16]: 3.441 | Specificity HEK293T (CC50/IC50) [2, 17]: 1.545 | Specificity HEK293T (CC50/IC50) [2, 18]: 3.710 | pIC50 ([3]; HUMC1, RPMI + 50% Serum): 4.66 | pIC50 ([3]; HUMC1, RPMI): 5.04 | pIC50 ([4]; ATCC 17978, RPMI + 50% Serum): 4.45 | pIC50 ([4]; ATCC 17978, RPMI): 5.01

CO[C@H]1/C=C/O[C@@]2(C)Oc3c(C)c(O)c4c(=O)c(c5oc6cc(N7CCN(CC(C)C)CC7)cc(O)c6nc-5c4c3C2=O)NC(=O)/C(C)=C\C=C\[C@H](C)[C@H](O)[C@@H](C)[C@@H](O)[C@@H](C)[C@H](OC(C)=O)[C@@H]1C [rifalazil]
Specificity HEK293T (CC50/IC50) [2, 15]: 0.609 | Specificity HEK293T (CC50/IC50) [2, 16]: 1.752 | Specificity HEK293T (CC50/IC50) [2, 17]: 4.055 | Specificity HEK293T (CC50/IC50) [2, 18]: 1.523 | pIC50 [3, 19]: 5.12 | pIC50 [3, 20]: 5.12 | pIC50 [3, 21]: 4.70 | pIC50 [4, 22]: 4.30 | pIC50 [4, 23]: 4.76

CO[C@H]1/C=C/O[C@@]2(C)Oc3c(C)c(O)c4c(O)c(c(/C=N/N5CCN(C)CC5)c(O)c4c3C2=O)NC(=O)/C(C)=C\C=C\[C@H](C)[C@H](O)[C@@H](C)[C@@H](O)[C@@H](C)[C@H](OC(C)=O)[C@@H]1C [rifampin]
Specificity HEK293T (CC50/IC50) [2, 15]: 2.741 | Specificity HEK293T (CC50/IC50) [2, 16]: 3.621 | Specificity HEK293T (CC50/IC50) [2, 17]: 6.256 | Specificity HEK293T (CC50/IC50) [2, 18]: 4.538 | MIC ([5]; K. pneumonia KP-3, MHII): 3.12 µg/mL (≈ 3.8 µM) | MIC ([5]; K. pneumonia KP-3, RPMI): 1.56 µg/mL (≈ 1.9 µM) | MIC ([5]; K. pneumonia KPC-KP1, MHII): 25 µg/mL (≈ 30.4 µM) | MIC ([5]; K. pneumonia KPC-KP1, RPMI): 50 µg/mL (≈ 60.8 µM) | protection [6]: only a partial protection | Mutation Frequency [7]: 9.49E−08 | MIC ([8]; A. baumannii (strain not named), MHII): 4 µg/mL (≈ 4.86 µM) | MIC ([8]; A. baumannii (strain not named), RPMI with serum): 4 µg/mL (≈ 4.86 µM) | MIC ([8]; A. baumannii VA-AB21, MHII): 3.12 µg/mL (≈ 3.8 µM) | MIC ([8]; A. baumannii VA-AB21, RPMI): > 6.12 µg/mL | MIC50 ([8]; CAMHB): 3.13 µg/mL (≈ 3.8 µM) | MIC90 ([8]; CAMHB): 6.25 µg/mL (≈ 7.59 µM) | MIC50 ([8]; RPMI): 12.5 µg/mL (≈ 15.2 µM) | MIC90 ([8]; RPMI): 25 µg/mL (≈ 30.4 µM) | MIC ([8]; ATCC17978, A. baumannii ATCC17978 and HUMC1, MHII): 2 µg/mL (≈ 2.43 µM) | MIC ([8]; ATCC17978, A. baumannii ATCC17978 and HUMC1, RPMI): 8 µg/mL (≈ 9.72 µM) | protection at minimum dose test ([9]; IV infection, RIF 10 or 30 mg/kg/daily for 3 days): only partially protective | survival ([9]; bacteremia model, 10 mg/kg for 3 days, 2 days post infection, PBS/control 0%): about 50% | protection ([9]; murine bacteremia, 10 mg/kg): 50% | MIC ([10]; MHII): 6.25 µg/mL (≈ 7.59 µM) | MIC ([10]; RPMI): 25 µg/mL (≈ 30.4 µM) | MIC ([11]; MHII): 0.025 µg/mL (≈ 0.0304 µM) | MIC ([11]; RPMI): 0.05 µg/mL (≈ 0.0608 µM) | Mutation Frequency [12]: 2.21E−08 | pIC50 [3, 19]: 5.10 | pIC50 [3, 20]: 5.10 | pIC50 [3, 21]: 4.96 | MIC ([1]; Acinetobacter baumannii, HUMC1, HUMC1, 0.01% Triton X-100, read-out: MIC): 2 µg/mL (≈ 2.43 µM) | MIC ([1]; Acinetobacter baumannii, HUMC1, HUMC1, 0.05% Tween 20, MHII, read-out: MIC): 2 µg/mL (≈ 2.43 µM) | MIC ([1]; Acinetobacter baumannii, HUMC1, HUMC1, 25° C., MHII, read-out: MIC): 2 µg/mL (≈ 2.43 µM) | MIC ([1]; Acinetobacter baumannii, HUMC1, HUMC1, 25° C., RPMI, read-out: MIC): 2 µg/mL (≈ 2.43 µM) | MIC ([1]; Acinetobacter baumannii, HUMC1, HUMC1, MHII (CAMHB), read-out: MIC): 4 µg/mL (≈ 4.86 µM) | MIC ([1]; Acinetobacter baumannii, HUMC1, HUMC1, RPMI + Essential Amino Acid Solution (50×), read-out: MIC): 6.25 µg/mL | MIC ([1]; Acinetobacter baumannii, HUMC1, HUMC1, RPMI + L-Histidine 0.5 mM): 12.5 µg/mL | MIC ([1]; Acinetobacter baumannii, HUMC1, HUMC1, RPMI + L-Tryptophan 0.125 mM): 12.5 µg/mL | difference in MICs at lower temperature ([1]; HUMC1, 25° C. or 30° C. compared to 37° C., MHII or RPMI): did not observe any difference | MIC ([1]; HUMC1, MHII (CAMHB in b45)): 3.125 µg/mL (≈ 3.8 µM) | MIC ([1]; HUMC1, MHII (CAMHB in b45), listed as Rifampin): 3.125 µg/mL (≈ 3.8 µM) | MIC ([1]; HUMC1, MHII (CAMHB), listed as RIF): 2 µg/mL and 3.125 µg/mL | MIC ([1]; HUMC1, RPMI): 3.125 µg/mL (≈ 3.8 µM) | MIC ([1]; HUMC1, RPMI, listed as Rifampin): 3.125 µg/mL (≈ 3.8 µM) | pIC50 ([4]; Acinetobacter baumannii, ATCC17978, 24 h, ATCC 17978, RPMI + 50% Serum): 4.74 | pIC50 [4, 22]: 4.74 | pIC50 [4, 23]: 4.86 | Mutation Frequency ([13]; A. baumannii ABNIH1, MHII): 4.17E−08 | Mutation Frequency ([13]; A. baumannii ATCC17978, MHII): 5.14E−09 | Mutation Frequency ([13]; A. baumannii ATCC17978, TSA): 7.95E−09 | Mutation Frequency ([13]; A. baumannii HUMC1, MHII): 9.19E−09 | Mutation Frequency ([13]; A. baumannii HUMC1, TSA): 1.44E−08 | Mutation Frequency ([13]; A. baumannii LAC-4, MHII): 2.62E−08 | survival ([14]; 5 mg/kg for 3 days, 2 days post infection): < 20% | survival ([14]; 5 mg/kg/daily for 3 days, oral gavage): did not protect from mortality | survival ([14]; 5 mg/kg/daily for 3 days, oral gavage, listed as RFP): did not improve survival vs. control | survival ([14]; 5 mg/kg/daily for 3 days, oral gavage, listed as RIF): did not do any better as compared to the PBS control group | lung CFUs ([14]; 5 mg/kg/daily for 3 days, oral gavage, lungs at 24 hrs post infection): did not reduce CFUs compared to control | bacterial burden ([14]; murine pneumonia, 5 mg/kg, day 7 post-infection): ~6.5 Log10(CFU/mg lung)
